Reference: patent US20250154288A1, “CYTOTOXICITY TARGETING CHIMERAS FOR C-C CHEMOKINE RECEPTOR 2-EXPRESSING CELLS” (GLAXOSMITHKLINE INTELLECTUAL PROPERTY DEVELOPMENT LIMITED, priority 2022, published 2025)
Structures can show the parent of a compound that is named as a salt.

Legend:
[1] = tested on: CCR2 expressing cells (CD11b+Ly6c+ Hi) in peripheral blood; assay: In Vivo Depletion Assay (flow cytometry of peripheral blood); parameters: species or system Human CCR2 (hCCR2) knock-in mice; settings: hCCR2 knock-in mice; IV 0.1 mpk compound + 10 mpk anti-cotinine antibody (mouse IgG2a Fc); peripheral blood at 48 hr
Method: (§1) Human CCR2 (hCCR2) knock-in mice (057 background) were dosed intravenously with a PBS solution containing a compound of Formula (I) to measure depletion of CCR2 expressing cells in peripheral blood. Peripheral blood from IV dosed mice was also analyzed to determine PK properties of the ARM compounds of Formula (I).
Stock solution preparation: Stock solutions of compounds of Formula (I) were prepared at 20 mg/mL and 100 mg/mL in DMSO for PK/PD and dose tolerability studies respectively. Stock solutions were stored at −20° C. until further usage.
Formulations preparation: On the day of experiment, the stock solution of the compound of Formula (I) was removed from storage at −20° C. and thawed at room temperature. Anti-cotinine antibody having a heavy chain sequence of SEQ ID NO: 13 and a light chain sequence of SEQ ID NO: 14 (rabbit variable region sequence with mouse IgG2a Fc domain), if required was removed from storage at −80° C. and thawed at room temperature. Antibody vials were immediately transferred into wet ice after thawing. Compounds of Formula (I) were further diluted in DMSO as per experimental requirements.
Formulation composition: The formulation composition was Saline: DMSO: PBS. Saline was added based on the quantity required and then stock solution of the compound of Formula (I) prepared in DMSO, followed by addition of antibody in PBS. Formulations were incubated at room temperature for 30 minutes before administration to the mouse. DMSO was used at 1 to 2% (v/v) in the final formulation.
(§2) Administration to Animal: Solution formulation of antibody and compound of Formula (I) was injected (bolus injection) to the restrained mouse in the right/left lateral tail vein. Animals were dosed with 0.1 milligram per kilogram (mpk) of the compound of Formula (I) and 10 mpk of the anti-cotinine antibody.
(§3) Terminal bleeding at end of experiment (48 hr): Approximately 250 μL of blood in K2EDTA tube and approximately 250 μL of blood in SST (serum separation tube) was collected from each mouse through retro-orbital bleeding under deep isoflurane anesthesia. After bleeding, each mouse was sacrificed by cervical dislocation. The blood distribution at termination was determined as follows: • For PK: 50 μL of K2EDTA blood was transferred to another tube for PK • Flow cytometry: Remaining blood (˜200 μL) was used for flow cytometry analysis. • For serum collection: serum separator tubes (BD) were centrifuged at 4° C., 5000 rpm for 15 minutes. Approximately 100 μL serum was separated and stored at −80° C. for further usage. • Blood drug concentration: Samples collected at the various timepoints (0.25 hr, 2 hr, 24 and 48 hr) were analyzed to determine blood drug concentration.
CCR2 depletion in peripheral blood was determined by flow cytometry. Briefly, peripheral blood was collected from all animals at the end of study termination and processed. Blood samples were lysed using 1×RBC Lysis buffer and the resulting cell pellet was washed twice in FACS buffer (HBSS containing 5% FBS). Cells were subjected to Fc blocking using mouse Fc block from Biolegend (Trustain, anti-mouse CD16/32, Cat: 101319) to block non-specific binding followed by surface staining for immune markers (CD45, CD3, CD11b, Ly6C, human CCR2). Surface staining was done for 30 minutes in ice and cells were washed twice to remove unbound antibodies. Cells were stained with 7AAD to determine viability and acquired on BD FACSVerse flow cytometer. Appropriate FMO controls and single-color controls were included in the experiment for gating and compensation respectively.
Percent depletion of CD11b+Ly6c+ Hi cells and CCR2 expression for the different treatment groups was determined. The results are shown below in Table 4 and are reported as percent (%) depletion of CCR2 expressing cells.

[2] = Blood drug concentration analysis (LC-MS/MS) in In Vivo Depletion Assay; settings: human CCR2 (hCCR2) knock-in, 057 background, mouse, whole blood, hCCR2 knock-in mice, IV 0.1 mpk compound + 10 mpk anti-cotinine antibody, 48 hours post-dose, read-out: Exposure of Compound of Formula (I) 48 hours post-dose
Method: as §1, §2
Collection of Blood for PK: Blood was collected at time points 0.25 hour, 2 hours, and […] following administration (50 μL/time point) through retro-orbital bleeding under mild isoflurane anesthesia.
as §3
Drug concentration in blood samples was determined by an LC-MS/MS-based bioanalytical method developed at Syngene. Samples were analyzed on Q-Trap, API-5500 LC-MS/MS system coupled with Exion UHPLC system from SCIEX, USA operated in multiple reaction monitoring mode employing electrospray ionization technique in positive polarity. Analyte and internal standard peaks were resolved on Synergi Polar, 75×2.0 mm, 4μ column using mobile phase 10 mM Ammonium acetate in Milli-Q water as phase A and 0.1% Formic acid in acetonitrile as Phase B. Gradient elution was performed with initial composition 95% Phase A at 0.0 min, holding it for 0.2 minutes, ramping to 5% by 1.0 minute, keeping the same for next 0.5 minutes and coming back to 95% by 1.6 minutes. The total run time was 2 minutes.
Working dilutions for calibration curve and quality control standards were prepared by serially diluting 20 mg/mL stock solution with DMSO. Spiked concentrations for calibration curve in the whole blood ranged from 1 ng/mL to 1000 ng/mL. The working solution of internal standard (Verapamil, 25 ng/mL) was prepared in acetonitrile. 10 μL of the study sample and calibration curve, quality control, and blank whole blood samples were aliquoted in 96 deep well plates for processing. 10 μL of Milli-Q water was added to all the samples and briefly vortexed to initiate complete hemolysis. 10 μL of 20 mM dithiothreitol (OTT) was added to all the samples and incubated for 30 minutes at 37° C. The addition of DTT enhanced the recovery of ARM compounds of Formula (I) from the biological matrix. 300 μL of working internal standard solution was added to all samples except total blank and wash samples, where 300 μL of acetonitrile was added. All the samples were vortex mixed for 5 minutes, followed by centrifugation at 4000 rpm for 10 minutes at 4° C. Supernatants were transferred to the loading plate and injected 3 μL to LC-MS/MS system for analysis. The results are shown below in Table 4 and are reported as compound exposure 48 hours post-dose

What does the source list for `CO[C@H]1COCC[C@H]1N[C@H]1CC[C@@](CCCNC(=O)[C@H]2CC[C@@H](NC(=O)CCOCCOCCNC(=O)CCNC(=O)[C@H]3CC(=O)N(C)[C@@H]3c3cccnc3)CC2)(C(=O)N2CCc3ncc(C(F)(F)F)cc3C2)C1` [Example 19, (2S,3S)—N-(3-((2-(2-(3-(((1s,4s)-4-((3-((1R,3S)-3-(((3R,4R)-3-Methoxytetrahydro-2H-pyran-4-yl)amino)-1-(3-(trifluoromethyl)-5,6,7,8-tetrahydro-1,6-naphthyridine-6-carbonyl)cyclopentyl)propyl)carbamoyl)cyclohexyl)amino)-3-oxopropoxy)ethoxy)ethyl)amino)-3-oxopropyl)-1-methyl-5-oxo-2-(pyridin-3-yl)pyrrolidine-3-carboxamide]?
% Depletion of CCR2 expressing cells [1]: 85.39%; concentration at 48 h [2]: 54.2 ng/mL

Which results are given for `CO[C@@H]1COCC[C@@H]1N[C@@H]1CC[C@@](C(=O)N2Cc3cc(C(F)(F)F)cnc3[C@H](NC(=O)[C@H]3CC[C@H](NC(=O)CCCO[C@H]4CC[C@H](OCCNC(=O)[C@H]5CC(=O)N(C)[C@@H]5c5cccnc5)CC4)CC3)C2)(C(C)C)C1` [Example 14, (2S,3S)-N-(2-(((1R,4S)-4-(4-(((1R,4R)-4-(((R)-6-((1S,3R)-1-isopropyl-3-(((3S,4S)-3-methoxytetrahydro-2H-pyran-4-yl)amino)cyclopentane-1-carbonyl)-3-(trifluoromethyl)-5,6,7,8-tetrahydro-1,6-naphthyridin-8-yl)carbamoyl)cyclohexyl)amino)-4-oxobutoxy)cyclohexyl)oxy)ethyl)-1-methyl-5-oxo-2-(pyridin-3-yl)pyrrolidine-3-carboxamide, 3Formic acid salt]?
% Depletion of CCR2 expressing cells [1]: 92.3%; concentration at 48 h [2]: 41.4 ng/mL

For `CO[C@@H]1COCC[C@@H]1N[C@@H]1CC[C@](CCCNC(=O)CCOCCOCCO[C@H]2CC[C@H](OCCNC(=O)[C@H]3CC(=O)N(C)[C@@H]3c3cccnc3)CC2)(C(=O)N2CCc3ncc(C(F)(F)F)cc3C2)C1` [Example 20, ((2S,3S)—N-(2-(((1r,4S)-4-(2-(2-(3-((3-((1S,3R)-3-(((3S,4S)-3-Methoxytetrahydro-2H-pyran-4-yl)amino)-1-(3-(trifluoromethyl)-5,6,7,8-tetrahydro-1,6-naphthyridine-6-carbonyl)cyclopentyl)propyl)amino)-3-oxopropoxy)ethoxy)ethoxy)cyclohexyl)oxy)ethyl)-1-methyl-5-oxo-2-(pyridin-3-yl)pyrrolidine-3-carboxamide, Formic acid salt], which “% Depletion of CCR2 expressing cells” value [1] is on record?
The value was 87.3%.

What about the concentration at 48 h [2] of the same molecule?
The concentration at 48 h was 74.6 ng/mL.

Which “% Depletion of CCR2 expressing cells” value [1] does the source give for `CO[C@@H]1COCC[C@@H]1N[C@@H]1CC[C@](CCCCCNC(=O)[C@H]2CC[C@H](NC(=O)CCCO[C@H]3CC[C@H](OCCNC(=O)[C@H]4CC(=O)N(C)[C@@H]4c4cccnc4)CC3)CC2)(C(=O)N2CCc3ncc(C(F)(F)F)cc3C2)C1` [Example 9, (2S,3S)-N-(2-(((1R,4S)-4-(4-(((1S,4R)-4-((5-((1S,3R)-3-(((3S,4S)-3-Methoxytetrahydro-2H-pyran-4-yl)amino)-1-(3-(trifluoromethyl)-5,6,7,8-tetrahydro-1,6-naphthyridine-6-carbonyl)cyclopentyl)pentyl)carbamoyl)cyclohexyl)amino)-4-oxobutoxy)cyclohexyl)oxy)ethyl)-1-methyl-5-oxo-2-(pyridin-3-yl)pyrrolidine-3-carboxamide] here?
The value was 99%.

And the concentration at 48 h [2]?
The concentration at 48 h was 49.8 ng/mL.

Which results are given for `CO[C@@H]1COCC[C@@H]1N[C@@H]1CC[C@](CCNC(=O)[C@H]2CC[C@H](NC(=O)CCCO[C@H]3CC[C@H](OCCNC(=O)[C@H]4CC(=O)N(C)[C@@H]4c4cccnc4)CC3)CC2)(C(=O)N2CCc3ncc(C(F)(F)F)cc3C2)C1` [Example 8, (2S,3S)-N-(2-(((1R,4S)-4-(4-(((1R,4R)-4-((2-((1R,3R)-3-(((3S,4S)-3-Methoxytetrahydro-2H-pyran-4-yl)amino)-1-(3-(trifluoromethyl)-5,6,7,8-tetrahydro-1,6-naphthyridine-6-carbonyl)cyclopentyl)ethyl)carbamoyl)cyclohexyl)amino)-4-oxobutoxy)cyclohexyl)oxy)ethyl)-1-methyl-5-oxo-2-(pyridin-3-yl)pyrrolidine-3-carboxamide]?
% Depletion of CCR2 expressing cells [1]: 99.22%; concentration at 48 h [2]: 74.9 ng/mL

Which “% Depletion of CCR2 expressing cells” value [1] does the source give for `CO[C@@H]1COCC[C@@H]1N[C@@H]1CC[C@@](C(=O)N2Cc3cc(C(F)(F)F)cnc3[C@@H](NC(=O)[C@H]3CC[C@H](NC(=O)CCCO[C@H]4CC[C@H](OCCNC(=O)[C@H]5CC(=O)N(C)[C@@H]5c5cccnc5)CC4)CC3)C2)(C(C)C)C1` [Example 15, (2S,3S)-N-(2-(((1R,4S)-4-(4-(((1S,4R)-4-(((S)-6-((1S,3R)-1-isopropyl-3-(((3S,4S)-3-methoxytetrahydro-2H-pyran-4-yl)amino)cyclopentane-1-carbonyl)-3-(trifluoromethyl)-5,6,7,8-tetrahydro-1,6-naphthyridin-8-yl)carbamoyl)cyclohexyl)amino)-4-oxobutoxy)cyclohexyl)oxy)ethyl)-1-methyl-5-oxo-2-(pyridin-3-yl)pyrrolidine-3-carboxamide] here?
The value was 94.04%.

What about the concentration at 48 h [2] of the same molecule?
Its concentration at 48 h is 35 ng/mL.

For `CO[C@@H]1COCC[C@@H]1N[C@@H]1CC[C@](CCCCNC(=O)[C@H]2CC[C@H](NC(=O)CCCO[C@H]3CC[C@H](OCCNC(=O)[C@H]4CC(=O)N(C)[C@@H]4c4cccnc4)CC3)CC2)(C(=O)N2CCc3ncc(C(F)(F)F)cc3C2)C1` [Example 7, (2S,3S)-N-(2-(((1R,4S)-4-(4-(((1S,4R)-4-((4-((1S,3R)-3-(((3S,4S)-3-Methoxytetrahydro-2H-pyran-4-yl)amino)-1-(3-(trifluoromethyl)-5,6,7,8-tetrahydro-1,6-naphthyridine-6-carbonyl)cyclopentyl)butyl)carbamoyl)cyclohexyl)amino)-4-oxobutoxy)cyclohexyl)oxy)ethyl)-1-methyl-5-oxo-2-(pyridin-3-yl)pyrrolidine-3-carboxamide], which “% Depletion of CCR2 expressing cells” value [1] is on record?
The value was 86.93%.

And the concentration at 48 h [2]?
The concentration at 48 h was 54.4 ng/mL.
